pIC50: −log10 of the molar value.
How the values were obtained:
[1] = target: human AT2R fused to Cb23 (Homo sapiens, UniProt P50052); test: Radioligand binding assay, displacement of 125I-[Sar1, Ile8]-Angiotensin II, hAT2R Cb23; details: displacement of 125I-[Sar1, Ile8]-Angiotensin II, human AT2R fused to Cb23, HEK-293 cell membrane preparations; read-out: Binding affinity on hAT2R_Cb23 IC50
Outline: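 Membranes from HEK-293 cells expressing human AT2R fused to Cb23 were incubated with 0.05 nM 125I-[Sar1, Ile8]-Angiotensin II in 100 μL buffer (50 mM Tris, 5 mM MgCl2, 1 mM EDTA, 0.1% BSA, pH 7.4) for one hour at 25° C. Ligands were tested as eight-point dose-response curves in duplicate, with C21 and Angiotensin II as references.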

[2] = target: human AT1R (Homo sapiens (Human), UniProt P30556); test: Counterscreen radioligand binding assay, displacement of 125I-[Sar1, Ile8]-Angiotensin II, hAT1R WT; details: for inhibition at 1 µM: read-out: % Displaced radioligand at 1 μM; for inhibition at 10 µM: read-out: % Displaced radioligand at 10 μM; for pIC50: HEK-293 cell membranes, read-out: Binding affinity On hAT1R IC50
human AT1R, sequence (P30556 whole entry): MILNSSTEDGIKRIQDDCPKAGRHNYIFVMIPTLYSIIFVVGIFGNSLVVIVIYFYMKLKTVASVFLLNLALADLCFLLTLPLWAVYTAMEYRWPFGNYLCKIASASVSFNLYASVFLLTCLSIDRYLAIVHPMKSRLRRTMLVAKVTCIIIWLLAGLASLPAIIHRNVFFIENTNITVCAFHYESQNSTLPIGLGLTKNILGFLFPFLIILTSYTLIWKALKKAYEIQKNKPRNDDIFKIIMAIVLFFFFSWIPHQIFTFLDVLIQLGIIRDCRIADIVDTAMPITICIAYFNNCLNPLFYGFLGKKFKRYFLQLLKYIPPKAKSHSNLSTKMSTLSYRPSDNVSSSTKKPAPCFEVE
Outline: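 Membranes from HEK-293 cells expressing human AT1R were incubated for one hour at 25° C, pH 7.4, with 0.05 nM radiolabelled [Sar1, Ile8]-Ang II and test ligand. Bound radioactivity was collected on PEI-soaked filters, with 10 μM unlabelled [Sar1]-Ang II defining non-specific binding. Results are percent displacement at 1 μM and […], or IC50 from eight-point duplicate curves.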

[3] = 125I-[Sar1, Ile8]-Ang II, compound at 1 μM, semi-quantitative score
[4] = 125I-[Sar1, Ile8]-Ang II, compound at 10 μM, semi-quantitative score

human AT2R fused to Cb23, sequence (P50052 whole entry, looked up, the tested form may be a part): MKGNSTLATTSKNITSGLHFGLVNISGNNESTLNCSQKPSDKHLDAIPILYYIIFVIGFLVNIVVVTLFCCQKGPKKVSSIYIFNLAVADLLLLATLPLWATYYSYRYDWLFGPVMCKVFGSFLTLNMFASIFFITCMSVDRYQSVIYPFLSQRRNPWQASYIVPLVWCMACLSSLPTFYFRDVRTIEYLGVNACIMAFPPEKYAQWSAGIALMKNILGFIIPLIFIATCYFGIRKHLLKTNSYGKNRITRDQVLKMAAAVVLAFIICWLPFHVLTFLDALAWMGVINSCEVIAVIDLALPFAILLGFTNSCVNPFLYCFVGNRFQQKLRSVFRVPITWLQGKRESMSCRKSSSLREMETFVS

| Structure (SMILES) | pIC50 [1] | inhibition at 1 µM [2, 3] | inhibition at 10 µM [2, 4] | pIC50 [2] | % Displaced radioligand at 1 μM [2, 3] | % Displaced radioligand at 10 μM [2, 4] |
| --- | --- | --- | --- | --- | --- | --- |
| COc1cccnc1CN1CCN(c2cc(CC(C)C)cc(F)c2-c2nn[nH]n2)CC1 [Compound A-198, 1-[3-fluoro-5-isobutyl-2-(2H-tetrazol-5-yl)phen-yl]-4-[(3-methoxy-2-pyridyl)meth-yl]piperazine] | 5.74 | < 30% | < 30% | – | – | – |
| COc1ccnc(CN2CCN(c3cc(CC(C)C)cc(F)c3-c3nn[nH]n3)CC2)c1 [Compound A-199, 1-[3-fluoro-5-isobutyl-2-(2H-tetrazol-5-yl)phen-yl]-4-[(4-methoxy-2-pyridyl)methyl]-piperazine] | 6.75 | < 30% | < 30% | – | – | – |
| COc1c(C)cnc(CN2CCN(c3cc(CC(C)C)cc(F)c3-c3nn[nH]n3)CC2)c1C [Compound A-200, 1-[3-fluoro-5-isobutyl-2-(2H-tetrazol-5-yl)phen-yl]-4-[(4-methoxy-3,5-dimethyl-2-pyridyl)methyl]-piperazine] | 5.97 | < 30% | < 30% | – | – | – |
| Cc1cccnc1CN1CCN(c2cc(CC(C)C)cc(F)c2-c2nn[nH]n2)CC1 [Compound A-203, 1-[3-fluoro-5-isobutyl-2-(2H-tetrazol-5-yl)phen-yl]-4-[(3-methyl-2-pyridyl)methyl]-piperazine] | 6.81 | < 30% | < 30% | – | – | – |
| CC(C)Cc1cc(F)c(-c2nn[nH]n2)c(N2CCN(Cc3cc(Cl)c(F)cn3)CC2)c1 [Compound A-210, 1-[(4-chloro-5-fluoro-2-pyridyl)-methyl]-4-[3-fluoro-5-isobutyl-2-(2H-tetrazol-5-yl)phen-yl]piperazine] | 5.70 | < 30% | < 30% | – | – | – |
| CC(C)Cc1cc(F)c(-c2nn[nH]n2)c(N2CCN(Cc3ncc(F)cc3F)CC2)c1 [Compound A-211, 1-[(3,5-difluoro-2-pyridyl)methyl]-4-[3-fluoro-5-isobutyl-2-(2H-tetrazol-5-yl)phenyl]piperazine] | 5.89 | < 30% | < 30% | – | – | – |
| CC(C)Cc1cc(F)c(-c2nn[nH]n2)c(N2CCN(C(C)c3ccccn3)CC2)c1 (centres unmarked) [Compound A-214, 1-[3-fluoro-5-isobutyl-2-(2H-tetrazol-5-yl)phenyl]-4-[1-(2-pyridyl)ethyl]piperazine] | 7.41 | < 30% | < 30% | – | – | – |
| CC(C)Cc1cc(F)c(-c2nn[nH]n2)c(N2CCN(C(=O)c3ccccn3)CC2)c1 [Compound A-215, [4-[3-fluoro-5-isobutyl-2-(2H-tetrazol-5-yl)phen-yl]piperazin-1-yl]-(2-pyridyl)meth-anone] | 6.52 | < 30% | < 30% | – | – | – |
| CC(C)Cc1cc(F)c(-c2nn[nH]n2)c(N2CCN(C(=O)c3ccccn3)[C@@H](C)C2)c1 [Compound A-216, [(2S)-4-[3-fluoro-5-isobutyl-2-(2H-tetrazol-5-yl)phen-yl]-2-methyl-piperazin-1-yl]-(2-pyridyl)methanone] | 6.61 | < 30% | < 30% | – | – | – |
| Cc1cnc(CN2CCN(c3cc(CC(C)C)cc(F)c3-c3nn[nH]n3)CC2)s1 [Compound A-220, 2-[[4-[3-fluoro-5-isobutyl-2-(2H-tetrazol-5-yl)phen-yl]piperazin-1-yl]-methyl]-5-methyl-thiazole] | 7.09 | < 30% | < 30% | – | – | – |
| Cc1cnc(CN2CCN(c3cc(CC(C)C)cnc3-c3nn[nH]n3)CC2)s1 [Compound A-221, 2-((4-(5-isobutyl-2-(2H-tetrazol-5-yl)pyridin-3-yl)piperazin-1-yl)methyl)-5-methylthiazole] | 5.56 | < 30% | < 30% | – | – | – |

Now from value to molecule:

| pIC50 [1] | inhibition at 1 µM [2, 3] | inhibition at 10 µM [2, 4] | pIC50 [2] | % Displaced radioligand at 1 μM [2, 3] | % Displaced radioligand at 10 μM [2, 4] | Structure (SMILES) |
| --- | --- | --- | --- | --- | --- | --- |
| 6.19 | < 30% | < 30% | – | – | – | Cc1ccc(CN2CCN(c3cc(CC(C)C)cc(F)c3-c3nn[nH]n3)CC2)nc1 [Compound A-201, 1-[3-fluoro-5-isobutyl-2-(2H-tetrazol-5-yl)phenyl]-4-[(5-methyl-2-pyridyl)methyl]piperazine] |
| 6.08 | < 30% | < 30% | – | – | – | CC(C)Cc1cc(F)c(-c2nn[nH]n2)c(N2CCN(Cc3cc(C(F)(F)F)ccn3)CC2)c1 [Compound A-202, 1-[3-fluoro-5-isobutyl-2-(2H-tetrazol-5-yl)phenyl]-4-[[4-(trifluoromethyl)-2-pyridyl]methyl]piperazine] |
| 6.67 | < 30% | < 30% | – | – | – | Cc1ccnc(CN2CCN(c3cc(CC(C)C)cc(F)c3-c3nn[nH]n3)CC2)c1 [Compound A-204, 1-[3-fluoro-5-isobutyl-2-(2H-tetrazol-5-yl)phen-yl]-4-[(4-methyl-2-pyridyl)methyl]-piperazine] |
| 6.42 | < 30% | < 30% | – | – | – | CC(C)Cc1cc(F)c(-c2nn[nH]n2)c(N2CCN(Cc3ncc(Cl)cc3F)CC2)c1 [Compound A-205, 1-[(5-chloro-3-fluoro-2-pyridyl)methyl]-4-[3-fluoro-5-isobutyl-2-(2H-tetrazol-5-yl)phenyl]piperazine] |
| 5.97 | < 30% | < 30% | – | – | – | CC(C)Cc1cc(F)c(-c2nn[nH]n2)c(N2CCN(Cc3ncc(F)cc3Cl)CC2)c1 [Compound A-206, 1-[(3-chloro-5-fluoro-2-pyridyl)-methyl]-4-[3-fluoro-5-isobutyl-2-(2H-tetrazol-5-yl)phen-yl]piperazine] |
| 5.92 | < 30% | < 30% | – | – | – | COc1cnc(CN2CCN(c3cc(CC(C)C)cc(F)c3-c3nn[nH]n3)CC2)cc1OC [Compound A-207, 1-[(4,5-dimethoxy-2-pyridyl)methyl]-4-[3-fluoro-5-isobutyl-2-(2H-tetrazol-5-yl)phenyl]piperazine] |
| 5.72 | < 30% | < 30% | – | – | – | COc1ccnc(CN2CCN(c3cc(CC(C)C)cc(F)c3-c3nn[nH]n3)CC2)c1C [Compound A-208, 1-[3-fluoro-5-isobutyl-2-(2H-tetrazol-5-yl)phen-yl]-4-[(4-methoxy-3-methyl-2-pyrid-yl)methyl]piper-azine] |
| 5.43 | 30 to 50% | > 50% | 5.17 | – | – | CC(C)Cc1cc(F)c(-c2nn[nH]n2)c(N2CCN(Cc3ccc(C#N)cn3)CC2)c1 [Compound A-209, 6-[[4-[3-fluoro-5-isobutyl-2-(2H-tetrazol-5-yl)phen-yl]piperazin-1-yl]-methyl]pyridine-3-carbonitrile] |
| 6.36 | < 30% | < 30% | – | – | – | CC(C)Cc1ccc(-c2nn[nH]n2)c(N2CCN(C(C)c3cccnn3)CC2)c1 (centres unmarked) [Compound A-212, 3-[1-[4-[5-isobutyl-2-(2H-tetrazol-5-yl)-phenyl]piperazin-1-yl]ethyl]pyrid-azine] |
| 6.41 | < 30% | < 30% | – | – | – | CC(C)Cc1cc(F)c(-c2nn[nH]n2)c(N2CCN(C(=O)c3cccnn3)CC2)c1 [Compound A-213, [4-[3-fluoro-5-isobutyl-2-(2H-tetrazol-5-yl)phenyl]piperazin-1-yl]-pyridazin-3-yl-methanone] |
| 6.91 | < 30% | < 30% | – | – | – | CC(C)Cc1cc(F)c(-c2nn[nH]n2)c(N2CCN(C(C)c3ccccn3)[C@@H](C)C2)c1 (stereo partly drawn) [Compound A-218, (2S)-4-[3-fluoro-5-isobutyl-2-(2H-tetrazol-5-yl)phenyl]-2-methyl-1-[1-(2-pyridyl)ethyl]piperazine] |
| 6.17 | < 30% | < 30% | 4.26 | – | – | Cc1cnc(CN2CCN(c3c(-c4nn[nH]n4)ccc(CC(C)C)c3F)CC2)s1 [Compound A-219, 2-[[4-[2-fluoro-3-isobutyl-6-(2H-tetrazol-5-yl)phen-yl]piperazin-1-yl]-methyl]-5-methyl-thiazole] |
| 8.02 | < 30% | < 30% | – | – | – | Cc1cnc(CN2CCN(c3cc(CC(C)C)cc(F)c3-c3nn[nH]n3)CC2C)s1 (centres unmarked) [Compound A-222, 2-[[4-[3-fluoro-5-isobutyl-2-(2H-tetrazol-5-yl)phenyl]-2-methyl-piperazin-1-yl]methyl]-5-methyl-thiazole] |
| 7.04 | < 30% | < 30% | – | – | – | Cc1cnc(CN2C(C)CN(c3cc(CC(C)C)cc(F)c3-c3nn[nH]n3)CC2C)s1 (centres unmarked) [Compound A-224, 2-[[4-[3-fluoro-5-isobutyl-2-(2H-tetrazol-5-yl)phen-yl]-2,6-dimethyl-piperazin-1-yl]-methyl]-5-methyl-thiazole] |
| 7.27 | – | – | – | * (* <30%) | * (* <30%) | Cc1cnc(C(C)N2CCN(c3cc(CC(C)C)cc(F)c3-c3nn[nH]n3)CC2)s1 (centres unmarked) [Compound A-225, 2-[1-[4-[3-fluoro-5-isobutyl-2-(2H-tetrazol-5-yl)phen-yl]piperazin-1-yl]-ethyl]-5-methyl-thiazole] |
